Where two headings read alike, the source gives them in different places.

Test [1] deals with T1, angiotensin I converting enzyme (ACE) (Oryctolagus cuniculus, UniProt P12822).
T1 construct: prepared from the lungs of albino rabbit according to the method described by Wallace et al; from tissue; host or cells: lungs of albino rabbit
T1 sequence (P12822 34-1310): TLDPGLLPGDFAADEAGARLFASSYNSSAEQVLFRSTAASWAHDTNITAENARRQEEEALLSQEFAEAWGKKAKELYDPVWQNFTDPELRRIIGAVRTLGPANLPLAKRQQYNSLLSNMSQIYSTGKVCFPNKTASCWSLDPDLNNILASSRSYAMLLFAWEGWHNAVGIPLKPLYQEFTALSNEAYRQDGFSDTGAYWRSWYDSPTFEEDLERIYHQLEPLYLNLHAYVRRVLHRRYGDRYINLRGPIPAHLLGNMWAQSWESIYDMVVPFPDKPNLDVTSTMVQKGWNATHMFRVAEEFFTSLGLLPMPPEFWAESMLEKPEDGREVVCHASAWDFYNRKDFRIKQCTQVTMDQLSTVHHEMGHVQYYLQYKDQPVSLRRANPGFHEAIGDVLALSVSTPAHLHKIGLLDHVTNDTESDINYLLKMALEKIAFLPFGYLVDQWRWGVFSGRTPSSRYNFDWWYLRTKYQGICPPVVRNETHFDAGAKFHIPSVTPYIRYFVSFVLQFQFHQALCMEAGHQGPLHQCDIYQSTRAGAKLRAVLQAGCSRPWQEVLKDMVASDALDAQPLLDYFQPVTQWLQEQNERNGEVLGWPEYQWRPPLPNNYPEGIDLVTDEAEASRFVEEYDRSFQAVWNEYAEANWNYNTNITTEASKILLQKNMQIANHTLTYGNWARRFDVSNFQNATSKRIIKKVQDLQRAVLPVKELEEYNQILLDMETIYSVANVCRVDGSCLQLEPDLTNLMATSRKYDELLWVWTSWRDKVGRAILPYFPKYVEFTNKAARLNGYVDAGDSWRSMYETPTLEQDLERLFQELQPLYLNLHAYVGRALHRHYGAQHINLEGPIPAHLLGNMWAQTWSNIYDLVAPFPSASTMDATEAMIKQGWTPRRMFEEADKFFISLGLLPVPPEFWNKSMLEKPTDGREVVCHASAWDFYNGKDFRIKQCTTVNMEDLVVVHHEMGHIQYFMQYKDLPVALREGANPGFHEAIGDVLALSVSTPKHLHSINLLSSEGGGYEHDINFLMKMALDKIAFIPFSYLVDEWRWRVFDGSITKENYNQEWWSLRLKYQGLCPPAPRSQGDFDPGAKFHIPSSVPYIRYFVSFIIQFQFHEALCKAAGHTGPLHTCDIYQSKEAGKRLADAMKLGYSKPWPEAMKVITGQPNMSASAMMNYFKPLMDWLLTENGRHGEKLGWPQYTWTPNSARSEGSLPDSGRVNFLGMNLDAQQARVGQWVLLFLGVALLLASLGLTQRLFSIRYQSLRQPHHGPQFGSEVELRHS
The test is described as follows: Inhibition of angiotensin I converting enzyme (HHL substrate, hippuric acid colorimetry, modified Cushman method). Type of test: biochemical, albino rabbit. As to conditions: ACE from rabbit lung, 37°C, one hour, read-out: Inhibitory Activity on ACE (%); for inhibition at 1 µM: Concentration 1 µM; for inhibition at 10 µM: Concentration 10 µM. The method, then:
Inhibitions of Angiotensin I Converting Enzyme by the Compounds of this Invention.
The experiment was conducted in accordance with a modification of the method described by Cushman et al. [Biochemical Pharmacology, Vol. 20, p1637(1971)] using an angiotensin I converting enzyme (ACE) prepared from the lungs of albino rabbit according to the method described by Wallace et al. [American Journal of Physiology, Vol 234, page R141(1978)]. That is, using hippuryl-L-histidyl-L-leucin (HHL) as the substrate, the ACE inhibitory activity was determined in terms of percentage inhibitation on the amount of hippurie acid produced by ACE when the present compound was added. A solution of the compound of the present invention dissolved in an 0.02 to 2% dimethyl sulfoxide-500 mMpotassium phosphate buffer solution (pH 8.3, containing 300 mM sodium chloride) was added to 100 µℓ of ACE (protein concentration, 20 mg/mℓ) and 100 µℓ of 1.25 mM HHL. In this experiment a potassium phosphate buffer solution containing dimethyl sulfoxide at a concentration equal to that of the test solution was used as a control. After incubating the solution at 37°C for one hour, 150 µℓ of 1N hydrochloric acid were added to the solution to terminate the reaction. After 1 mℓ of ethyl acetate was added, the solution was centrifuged at 3000 r.p.m. for 10 minutes. An 0.5 mℓ aliquot was separated from the ethyl acetate layer and dried at a temperature below 50°C under a nitrogen. gas stream. The residue was mixed with mℓ of 1M aqueous sodium chloride and the mixture was subjected to colorimetry at a wavelength of 228 nm.

Test [2] deals with Hypertensive Activity of Angiotensin I. The test is described as follows: Effect against hypertensive activity of angiotensin I in anaesthetized-cannulated rats after oral dosing. As to conditions: Rattus norvegicus, 138 µM/kg orally, corrected by angiotensin II response. Type of test: in vivo, Male rats (Sprague-Dawley). Here is the method: Male rats (Sprague-Dawley) weighing 230 to 350 g, which were fed under free access to drinking water and feeds, were used as experimental animals. The rats were anaesthetized with intraperitoneal administration of pentobarbital sodium (50 mg/kg) on the day before the test day, and a polyethylene tube was inserted into each femoral artery for measurement of blood pressare and the femoral vein for injection of angiotensin I and II, and then the tubes were fixed.
On the test day, an average blood pressure in the control phase was recorded on an electric haemedynamemeter (MP-4T model manufactured by Nippon Koden, Japan) and, thereafter, angiotensin I and then angionensin II were injected through the femoral vein at a dose of […] and 100 ng/kg, respectively, to measure the hypertensive activity. Then, 138 µM/kg of the compound of this invention were administrated orally as an aqueous solution or an aqueous gum arabic suspension, […], angiotensin I and II were injected repeatedly to trace hypertensive reactions. In calculating the percentage inhibition to the hypertensive activity of angiotensin 1, the percentage inhibitory value was corrected based on the variation with time in the hypertensive reaction by anziotensin II.

For `CC(=O)SCC(C)C(=O)N1Cc2cc(O)c(O)cc2C[C@H]1C(=O)O` (stereo partly drawn) [Example 1, (3S)-2-(3-acetylthio-2-methylpropionyl)-6,7-dihydroxy-1,2,3,4-tetrahydroisoquinoline-5-carboxylie aeid], in test [1], the inhibition at 1 µM worked out at 23% and the inhibition at 10 µM was 87%.

For the molecule `COc1cc2c(cc1OC)CN(C(=O)C(C)CSC(C)=O)C(C(=O)O)C2` (stereo not shown) [Example 6, 2-(3-acetylthio-2-methylpropionyl)-6,7-dimethoxy-1,2,3,4-tetrahydroisoquinoline-3-carboxylic aeid], in test [1], the inhibition at 1 µM was found to be 62% and the inhibition at 10 µM amounted to 99%.

`CC(=O)SCC(C)C(=O)N1Cc2cc(C)ccc2CC1C(=O)O` (stereo not shown) [Example 7]: in test [1], the inhibition at 1 µM is 63% and the inhibition at 10 µM came to 88%.

As for `COc1cc2c(cc1O)CN(C(=O)C(C)CSC(C)=O)C(C(=O)O)C2` (stereo not shown) [Example 14, 2-(3-acetylthio-2-methylpropionyl)-7-hydroxy-6-methoxy-1,2,3,4-tetrahydroisoquinoline-3-carbxylic acid], in test [1], the inhibition at 1 µM stood at 33% and the inhibition at 10 µM turned out to be 90%.

With `CC(=O)SCC(C)C(=O)N1Cc2ccc(O)cc2CC1C(=O)O` (stereo not shown) [Example 19, 2-(3-acetylthio-2-methylpropionyl)-6-hydroxy-1,2,3,4-tetrahydroisoquinoline-3-carboxylic acid], in test [1], the inhibition at 1 µM amounted to 61% and the inhibition at 10 µM turned out to be 98%.

In the case of `CC(=O)SCC(C)C(=O)N1Cc2cc(CC(C)C)ccc2CC1C(=O)O` (stereo not shown) [Example 34, 2-(3-acetylthio-2-methylpropionyl)-7-isobutyl-1,2,3,4-tetrahydroisoquinoline-3-carboxylic acid], in test [1], the inhibition at 1 µM was found to be 63% and the inhibition at 10 µM stood at 94%.

In the case of `CC(=O)SCC(C)C(=O)N1Cc2cc3c(cc2C[C@H]1C(=O)O)OCO3` (stereo partly drawn) [Example 38, (3S)-2-(3-acetylthio-2-methylpropionyl)-6,7-methylenedioxy-1,2,3,4-tetrahydroisoquinoline-3-carboxylic acid], in test [1], the inhibition at 1 µM was determined as 83% and the inhibition at 10 µM was 100%.

Take `CC(=O)SCC(C)C(=O)N1Cc2cc(Br)ccc2CC1C(=O)O` (stereo not shown) [Example 42, 2-(3-acetylthio-2-methylpropiony)-7-tromo-1,2,3,4-tetrahydroisoquinoline-3-carboxylic acid]: in test [1], the inhibition at 1 µM worked out at 69% and the inhibition at 10 µM stood at 93%.

On to `CC(=O)SCC(C)C(=O)N1Cc2cc(N3CCCCC3)ccc2CC1C(=O)O` (stereo not shown) [Example 44, 2-(3-acetylthio-2-methylpropionyl)-7-piperidino-1,2,3,4-tetrahydroisoquinoline-3-carbozylic acid], for which, in test [1], the inhibition at 1 µM is 66% and the inhibition at 10 µM was determined as 97%.

Turning to `CC(CS)C(=O)N1Cc2cc3c(cc2C[C@H]1C(=O)O)OCO3` (stereo partly drawn) [Example 52, (3S)-2-(3-mercapto-2-methylpropionul)-1,7-mezhylene-dioxy-1,2,3,4-tetrahydroisoquinoline-3-earboxylie acid], in test [1], the inhibition at 1 µM was 60% and the inhibition at 10 µM is 82%.

As for `O=C(O)C1Cc2cc3c(cc2CN1C(=O)C(CS)CS)OCO3` (stereo not shown) [Example 69, 2-(3-mercapto-2-mercapthylpropionyl)-6,7-methylenedioxy-1,2,3,4-tetrahydroisooquinoline-3-carboxylic acid], the inhibition in vivo at 138 µM, 138 µmol/kg in test [2] (20 min, After 20 min, read-out: Percent Inhibition (%) against Hyper-tensive Reaction by Angiotensin I After 20 min) was 95%; in test [2] (1 h, After 60 min, read-out: Percent Inhibition (%) against Hyper-tensive Reaction by Angiotensin I After 60 min), 77%; in test [2] (2 h, After 120 min, read-out: Percent Inhibition (%) against Hyper-tensive Reaction by Angiotensin I After 120 min), 76%.

As for `CC(C)(C)c1ccc2c(c1)CN(C(=O)C(CS)CS)C(C(=O)O)C2` (stereo not shown) [Example 71, 7-tert-butyl-2-(3-mercapto-2-mereaptomethylprionyl)-1,2,3,4-tetrahydroisoquinoline-3-carboxylic acid], in test [1], the inhibition at 1 µM is 71% and the inhibition at 10 µM amounted to 77%.

The values are drawn from patent publication EP0018104A2, “Tetrahydroisoquinolines, their production and the compounds and pharmaceutical compositions containing them for use in the prevention or treatment of hypertension” (Takeda Chemical Industries, Ltd., priority 1979, dated 1980).
